Counter-ions that a name gives are not always drawn.
Legend:
Bile salt export pump = Bile salt export pump (Homo sapiens, UniProt O95342); assay: Inhibition of human BSEP overexpressed in Sf9 cell membrane vesicles assessed as uptake of [3H]-taurocholate in presence of ATP measured after 15 to 20 mins by membrane vesicle transport assay; type: ADME, cell-based
[1] = target: ATP-binding cassette sub-family C member 2 (Homo sapiens, UniProt Q92887); assay: Inhibition of human MRP2 overexpressed in Sf9 cell membrane vesicles assessed as uptake of [3H]-estradiol-17beta-D-glucuronide in presence of ATP and GSH measured after 20 mins by membrane vesicle transport assay
[2] = target: ATP-binding cassette sub-family C member 3 (Homo sapiens, UniProt O15438); assay: Inhibition of human MRP3 overexpressed in Sf9 insect cell membrane vesicles assessed as uptake of [3H]-estradiol-17beta-D-glucuronide in presence of ATP and GSH measured after 10 mins by membrane vesicle transport assay; type: ADME, cell-based
[3] = target: T1, ATP-binding cassette sub-family C member 4 (Homo sapiens, UniProt O15439); assay: Inhibition of human MRP4 overexpressed in Sf9 cell membrane vesicles assessed as uptake of [3H]-estradiol-17beta-D-glucuronide in presence of ATP and GSH measured after 20 mins by membrane vesicle transport assay; type: ADME, cell-based
T1 sequence (O15439 whole entry): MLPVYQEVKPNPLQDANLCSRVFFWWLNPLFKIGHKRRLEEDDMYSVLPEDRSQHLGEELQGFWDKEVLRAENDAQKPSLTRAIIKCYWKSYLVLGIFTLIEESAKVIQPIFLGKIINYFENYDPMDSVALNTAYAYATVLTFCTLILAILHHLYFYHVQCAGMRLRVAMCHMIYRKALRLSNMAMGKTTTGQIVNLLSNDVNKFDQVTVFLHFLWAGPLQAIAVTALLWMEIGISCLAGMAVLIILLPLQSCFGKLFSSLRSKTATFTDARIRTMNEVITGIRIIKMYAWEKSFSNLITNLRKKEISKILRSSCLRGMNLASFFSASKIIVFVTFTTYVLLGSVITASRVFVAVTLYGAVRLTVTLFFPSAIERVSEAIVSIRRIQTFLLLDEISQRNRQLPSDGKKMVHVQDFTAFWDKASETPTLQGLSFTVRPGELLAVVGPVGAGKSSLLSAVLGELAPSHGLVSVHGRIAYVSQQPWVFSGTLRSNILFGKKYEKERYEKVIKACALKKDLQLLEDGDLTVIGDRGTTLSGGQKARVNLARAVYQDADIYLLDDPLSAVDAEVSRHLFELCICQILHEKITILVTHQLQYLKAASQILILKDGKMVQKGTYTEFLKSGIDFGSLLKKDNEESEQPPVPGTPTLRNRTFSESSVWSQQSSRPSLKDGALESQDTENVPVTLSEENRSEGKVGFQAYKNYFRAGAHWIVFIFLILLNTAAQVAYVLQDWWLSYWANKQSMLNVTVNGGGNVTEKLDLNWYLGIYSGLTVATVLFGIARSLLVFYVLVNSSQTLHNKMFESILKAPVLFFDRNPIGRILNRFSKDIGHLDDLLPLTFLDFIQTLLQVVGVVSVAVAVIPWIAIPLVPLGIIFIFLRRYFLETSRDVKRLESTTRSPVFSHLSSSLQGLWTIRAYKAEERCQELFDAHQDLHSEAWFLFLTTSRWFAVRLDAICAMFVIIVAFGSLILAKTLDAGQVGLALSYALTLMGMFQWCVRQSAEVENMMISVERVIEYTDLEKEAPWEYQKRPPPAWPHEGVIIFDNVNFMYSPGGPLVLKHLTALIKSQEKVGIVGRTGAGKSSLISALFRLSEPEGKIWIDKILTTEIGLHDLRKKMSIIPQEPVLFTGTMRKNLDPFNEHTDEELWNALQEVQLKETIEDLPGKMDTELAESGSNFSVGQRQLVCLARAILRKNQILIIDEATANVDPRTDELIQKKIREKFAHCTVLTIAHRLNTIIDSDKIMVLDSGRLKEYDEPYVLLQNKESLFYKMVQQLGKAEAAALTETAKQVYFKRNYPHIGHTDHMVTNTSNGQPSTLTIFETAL

Bile salt export pump, sequence (O95342 whole entry): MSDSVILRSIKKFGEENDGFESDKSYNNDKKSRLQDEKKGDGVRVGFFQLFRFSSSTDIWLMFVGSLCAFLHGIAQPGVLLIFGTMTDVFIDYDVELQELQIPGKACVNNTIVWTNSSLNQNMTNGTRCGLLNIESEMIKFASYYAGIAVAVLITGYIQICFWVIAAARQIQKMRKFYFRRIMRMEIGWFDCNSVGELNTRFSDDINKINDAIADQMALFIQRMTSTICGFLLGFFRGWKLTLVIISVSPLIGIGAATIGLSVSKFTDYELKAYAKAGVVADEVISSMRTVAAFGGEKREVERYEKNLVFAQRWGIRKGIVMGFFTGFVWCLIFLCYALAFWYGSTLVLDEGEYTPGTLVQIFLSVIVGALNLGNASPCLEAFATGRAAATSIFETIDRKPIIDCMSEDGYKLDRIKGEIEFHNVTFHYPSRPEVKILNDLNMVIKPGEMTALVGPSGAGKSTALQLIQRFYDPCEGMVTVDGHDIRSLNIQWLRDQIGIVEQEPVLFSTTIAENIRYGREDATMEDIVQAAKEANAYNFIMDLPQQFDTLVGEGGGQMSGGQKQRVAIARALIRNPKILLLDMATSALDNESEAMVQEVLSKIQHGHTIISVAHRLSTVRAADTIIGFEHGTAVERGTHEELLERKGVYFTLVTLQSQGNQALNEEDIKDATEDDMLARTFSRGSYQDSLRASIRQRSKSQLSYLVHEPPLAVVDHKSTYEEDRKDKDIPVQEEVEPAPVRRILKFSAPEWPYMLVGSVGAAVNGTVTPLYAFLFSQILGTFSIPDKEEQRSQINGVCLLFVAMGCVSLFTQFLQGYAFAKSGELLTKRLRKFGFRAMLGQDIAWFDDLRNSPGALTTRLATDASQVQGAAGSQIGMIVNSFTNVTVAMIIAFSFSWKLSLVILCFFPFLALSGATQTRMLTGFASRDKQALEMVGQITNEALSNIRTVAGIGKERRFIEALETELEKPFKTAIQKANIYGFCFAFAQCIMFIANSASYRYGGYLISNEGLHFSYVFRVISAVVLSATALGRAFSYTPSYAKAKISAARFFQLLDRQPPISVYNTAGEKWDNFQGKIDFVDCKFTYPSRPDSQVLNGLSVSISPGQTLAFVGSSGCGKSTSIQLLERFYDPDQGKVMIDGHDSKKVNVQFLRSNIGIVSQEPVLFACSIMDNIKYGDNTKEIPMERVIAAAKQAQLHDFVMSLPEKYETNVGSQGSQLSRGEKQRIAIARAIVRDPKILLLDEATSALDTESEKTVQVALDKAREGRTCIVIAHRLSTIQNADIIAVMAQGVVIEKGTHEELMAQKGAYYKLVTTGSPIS
ATP-binding cassette sub-family C member 3, sequence (O15438 whole entry): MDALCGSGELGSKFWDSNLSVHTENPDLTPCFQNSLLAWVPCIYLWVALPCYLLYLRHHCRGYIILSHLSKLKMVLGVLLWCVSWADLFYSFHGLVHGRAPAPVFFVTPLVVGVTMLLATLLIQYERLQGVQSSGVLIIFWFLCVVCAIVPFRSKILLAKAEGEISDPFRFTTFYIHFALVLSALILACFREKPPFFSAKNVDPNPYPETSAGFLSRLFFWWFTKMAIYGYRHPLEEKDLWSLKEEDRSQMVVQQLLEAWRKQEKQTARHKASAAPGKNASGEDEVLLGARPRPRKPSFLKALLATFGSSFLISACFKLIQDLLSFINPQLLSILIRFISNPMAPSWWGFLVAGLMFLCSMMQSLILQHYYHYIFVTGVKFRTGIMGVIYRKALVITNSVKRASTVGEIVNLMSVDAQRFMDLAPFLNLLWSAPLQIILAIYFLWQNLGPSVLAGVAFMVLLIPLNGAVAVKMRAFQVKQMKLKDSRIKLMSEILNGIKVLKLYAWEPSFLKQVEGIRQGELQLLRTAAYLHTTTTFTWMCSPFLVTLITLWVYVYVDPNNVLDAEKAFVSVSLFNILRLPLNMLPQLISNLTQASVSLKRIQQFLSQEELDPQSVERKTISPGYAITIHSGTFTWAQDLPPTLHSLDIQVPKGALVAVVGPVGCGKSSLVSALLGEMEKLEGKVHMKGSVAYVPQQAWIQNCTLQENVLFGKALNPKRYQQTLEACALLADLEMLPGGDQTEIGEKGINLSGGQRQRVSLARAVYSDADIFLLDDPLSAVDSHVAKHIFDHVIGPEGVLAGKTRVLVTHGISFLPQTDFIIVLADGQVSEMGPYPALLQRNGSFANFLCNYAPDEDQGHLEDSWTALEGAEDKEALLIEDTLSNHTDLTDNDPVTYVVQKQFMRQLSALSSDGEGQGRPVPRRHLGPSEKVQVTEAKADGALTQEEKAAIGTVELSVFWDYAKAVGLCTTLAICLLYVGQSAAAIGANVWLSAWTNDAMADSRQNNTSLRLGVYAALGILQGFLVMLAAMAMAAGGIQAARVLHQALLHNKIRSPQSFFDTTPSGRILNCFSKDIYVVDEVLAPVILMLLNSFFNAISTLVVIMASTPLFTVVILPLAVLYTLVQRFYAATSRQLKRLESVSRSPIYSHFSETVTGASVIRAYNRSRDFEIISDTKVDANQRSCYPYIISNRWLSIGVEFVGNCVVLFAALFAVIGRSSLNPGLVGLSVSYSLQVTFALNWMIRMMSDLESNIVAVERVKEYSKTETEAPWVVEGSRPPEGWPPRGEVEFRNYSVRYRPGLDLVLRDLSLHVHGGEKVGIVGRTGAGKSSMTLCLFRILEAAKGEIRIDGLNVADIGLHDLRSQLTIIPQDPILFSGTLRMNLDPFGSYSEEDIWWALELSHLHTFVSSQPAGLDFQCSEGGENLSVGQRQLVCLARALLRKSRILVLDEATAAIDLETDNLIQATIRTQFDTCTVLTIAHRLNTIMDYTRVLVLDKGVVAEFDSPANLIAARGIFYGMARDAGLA
ATP-binding cassette sub-family C member 2, sequence (Q92887 whole entry): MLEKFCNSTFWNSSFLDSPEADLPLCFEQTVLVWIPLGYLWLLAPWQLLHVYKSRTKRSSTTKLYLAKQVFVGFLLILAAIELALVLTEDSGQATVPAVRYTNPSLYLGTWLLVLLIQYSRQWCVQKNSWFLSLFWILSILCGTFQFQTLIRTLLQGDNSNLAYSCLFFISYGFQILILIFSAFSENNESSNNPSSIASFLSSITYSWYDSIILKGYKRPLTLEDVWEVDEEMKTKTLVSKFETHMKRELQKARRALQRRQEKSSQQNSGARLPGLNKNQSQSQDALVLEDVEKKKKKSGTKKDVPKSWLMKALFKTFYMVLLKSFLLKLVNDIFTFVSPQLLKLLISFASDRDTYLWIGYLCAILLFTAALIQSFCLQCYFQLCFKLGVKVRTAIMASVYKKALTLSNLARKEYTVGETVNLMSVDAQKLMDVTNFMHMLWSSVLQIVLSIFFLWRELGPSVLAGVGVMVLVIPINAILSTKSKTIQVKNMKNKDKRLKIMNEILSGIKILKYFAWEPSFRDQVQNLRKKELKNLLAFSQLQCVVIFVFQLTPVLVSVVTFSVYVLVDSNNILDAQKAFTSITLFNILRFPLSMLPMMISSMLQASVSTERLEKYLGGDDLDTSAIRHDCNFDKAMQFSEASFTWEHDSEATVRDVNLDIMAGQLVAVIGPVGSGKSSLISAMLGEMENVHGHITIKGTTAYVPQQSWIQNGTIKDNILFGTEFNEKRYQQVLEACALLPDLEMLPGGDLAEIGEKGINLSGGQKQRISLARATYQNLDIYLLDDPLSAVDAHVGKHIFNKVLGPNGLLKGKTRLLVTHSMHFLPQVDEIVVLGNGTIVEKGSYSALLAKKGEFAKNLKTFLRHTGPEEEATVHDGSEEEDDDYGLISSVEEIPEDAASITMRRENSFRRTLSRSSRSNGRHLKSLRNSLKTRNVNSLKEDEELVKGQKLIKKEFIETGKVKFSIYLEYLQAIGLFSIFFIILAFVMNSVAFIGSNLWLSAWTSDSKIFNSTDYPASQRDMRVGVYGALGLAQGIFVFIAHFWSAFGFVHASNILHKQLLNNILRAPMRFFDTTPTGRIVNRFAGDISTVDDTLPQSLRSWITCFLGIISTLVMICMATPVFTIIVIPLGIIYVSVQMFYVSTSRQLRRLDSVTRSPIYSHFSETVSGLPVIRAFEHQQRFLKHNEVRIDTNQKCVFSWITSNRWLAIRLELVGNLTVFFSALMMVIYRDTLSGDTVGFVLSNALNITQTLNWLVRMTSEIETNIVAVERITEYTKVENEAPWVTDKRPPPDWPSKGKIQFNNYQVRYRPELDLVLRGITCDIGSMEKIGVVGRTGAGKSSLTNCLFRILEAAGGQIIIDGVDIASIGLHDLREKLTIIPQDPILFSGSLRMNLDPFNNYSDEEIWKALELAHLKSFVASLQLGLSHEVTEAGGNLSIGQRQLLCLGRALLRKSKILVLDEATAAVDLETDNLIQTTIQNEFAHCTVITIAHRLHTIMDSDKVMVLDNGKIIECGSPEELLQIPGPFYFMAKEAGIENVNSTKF

Row | Compound | IC50 (Bile salt export pump) [µM] | IC50 [1] [µM] | IC50 [2] [µM] | IC50 [3] [µM]
1 | CN1CCN(c2c(F)cc3c(=O)c(C(=O)O)cn(CCF)c3c2F)CC1 [FLEROXACIN] | > 133 | > 133 | > 133 | > 133
2 | COc1ccc(Cl)cc1[C@]1(F)C(=O)Nc2cc(C(F)(F)F)ccc21 [FLINDOKALNER] | > 133 | > 133 | > 133 | > 133
3 | c1cc(CN2CCCNCCNCCCNCC2)ccc1CN1CCCNCCNCCCNCC1 [PLERIXAFOR] | > 133 | > 133 | > 133 | > 133
4 | C#C[C@]1(O)CC[C@H]2[C@@H]3CCC4=CC(=O)CC[C@@H]4[C@H]3CC[C@@]21CC [LEVONORGESTREL] | > 133 | > 133 | > 133 | > 133
5 | CCN1CCC[C@H]1CNC(=O)c1cc(S(N)(=O)=O)ccc1OC [LEVOSULPIRIDE] | > 133 | > 133 | > 133 | > 133
6 | ClC(Cl)(Cl)Cl [CARBON TETRACHLORIDE] | > 133 | > 133 | > 133 | > 133
7 | O=[N+]([O-])C(Br)(CO)CO [BRONOPOL] | > 133 | > 133 | > 133 | > 133
8 | CC[C@H](C)[C@@H]1NC(=O)[C@H](Cc2ccc(O)cc2)NC(=O)[C@@H](N)CSSC[C@@H](C(=O)N2CCC[C@H]2C(=O)N[C@@H](CC(C)C)C(=O)NCC(N)=O)NC(=O)[C@H](CC(N)=O)NC(=O)[C@H](CCC(N)=O)NC1=O | > 133 | > 133 | > 133 | > 133
9 | CCN(CC)C(=O)c1cccnc1 [NIKETHAMIDE] | > 133 | > 133 | > 133 | > 133
10 | Cc1nccn1CC1CCc2c(c3ccccc3n2C)C1=O (stereo not drawn) [ONDANSETRON] | > 133 | > 133 | > 133 | > 133
11 | CC[C@@]1(O)C(=O)OCc2c1cc1n(c2=O)Cc2cc3ccccc3nc2-1 [CAMPTOTHECIN] | > 133 | > 133 | > 133 | 7.4
12 | Nc1nc2c(ncn2COCCO)c(=O)[nH]1 [ACYCLOVIR] | > 133 | > 133 | > 133 | > 133
13 | N=C(N)NC(=O)Cc1c(Cl)cccc1Cl [GUANFACINE] | > 133 | > 133 | > 133 | > 133
14 | Clc1ccc2c(c1)C(N1CCNCC1)=Nc1ccccc1O2 [AMOXAPINE] | > 133 | > 133 | > 133 | > 133
15 | CCCN[C@H]1CCc2nc(N)sc2C1 [PRAMIPEXOLE] | > 133 | > 133 | > 133 | > 133
16 | COc1cccc2c1C(=O)c1c(O)c3c(c(O)c1C2=O)C[C@@](O)(C(=O)CO)C[C@@H]3O[C@H]1C[C@H](N)[C@H](O)[C@H](C)O1 [DOXORUBICIN] | > 133 | > 133 | > 133 | 19
17 | Cc1cccc(Nc2cc(Cl)nc(SCC(=O)O)n2)c1C [PIRINIXIC ACID] | 99 | > 133 | > 133 | 44.9
18 | CC(=O)Nc1c(I)c(NC(C)=O)c(I)c(C(=O)O)c1I [DIATRIZOIC ACID] | > 133 | > 133 | > 133 | > 133
19 | CC(C)(C)NCC(O)COc1cccc2c1CC(O)C(O)C2 (stereo not drawn) [NADOLOL] | > 133 | > 133 | > 133 | > 133
20 | CN1CCN(C(=O)OC2c3nccnc3C(=O)N2c2ccc(Cl)cn2)CC1 (stereo not drawn) [ZOPICLONE] | > 133 | > 133 | > 133 | > 133
21 | CC1=C(/C=C/C(C)=C/C=C/C(C)=C/C(=O)O)C(C)(C)CCC1 [TRETINOIN] | > 133 | > 133 | > 133 | > 133
22 | CC(O)(P(=O)(O)O)P(=O)(O)O [ETIDRONATE DISODIUM] | > 133 | > 133 | > 133 | > 133

Row | Compound | IC50 (Bile salt export pump) [µM] | IC50 [1] [µM] | IC50 [2] [µM] | IC50 [3] [µM]
23 | Oc1ncnc2[nH]ncc12 [ALLOPURINOL] | > 133 | > 133 | > 133 | > 133
24 | C[C@@H](O)[C@H]1C(=O)N2C(C(=O)O)=C(S[C@@H]3CN[C@H](C(=O)Nc4cccc(C(=O)O)c4)C3)[C@H](C)[C@H]12 | > 133 | 56.2 | > 133 | > 133
25 | CC[C@@H](C(N)=O)N1CCCC1=O | > 133 | > 133 | > 133 | > 133
26 | Cc1ccc(-c2nc3ccc(C)cn3c2CC(=O)N(C)C)cc1 | > 133 | > 133 | > 133 | > 133
27 | CCCc1nn(C)c2c(=O)[nH]c(-c3cc(S(=O)(=O)N4CCN(C)CC4)ccc3OCC)nc12 [SILDENAFIL CITRATE] | 132 | > 133 | > 133 | –
28 | O=C(O)COC(=O)Cc1ccccc1Nc1c(Cl)cccc1Cl [ACECLOFENAC] | 105 | – | > 133 | > 133
29 | O=c1n(CCCN2CCN(c3cccc(Cl)c3)CC2)nc2ccccn12 [TRAZODONE] | > 133 | – | > 133 | > 133
30 | COc1cc2nc(N3CCN(C(=O)c4ccco4)CC3)nc(N)c2cc1OC [PRAZOSIN] | > 133 | – | > 133 | 12.5
31 | N#C/C(=C1/SCC(c2ccccc2Cl)S1)n1ccnc1 (stereo not drawn) [LANOCONAZOLE] | 9.65 | – | > 133 | > 133
32 | Cc1cnc(NC(=O)C2=C(O)c3ccccc3S(=O)(=O)N2C)s1 [MELOXICAM] | 77.5 | – | > 133 | > 133
33 | Cc1ccc(C)c(OCCCC(C)(C)C(=O)O)c1 [GEMFIBROZIL] | > 133 | – | > 133 | > 133
34 | CCCCCC[C@H]1C(=O)O[C@H](C)[C@H](NC(=O)c2cccc(NC=O)c2O)C(=O)O[C@@H](C)[C@@H]1OC(=O)CC(C)C [ANTIMYCIN A] | 59.6 | – | > 133 | > 133
35 | Cc1cc(C2CCCCC2)n(O)c(=O)c1 [CICLOPIROX] | > 133 | – | > 133 | > 133
36 | CC1=C(CC(=O)O)c2cc(F)ccc2/C1=C\c1ccc([S+](C)[O-])cc1 (stereo not drawn) | > 133 | – | > 133 | > 133
37 | O=c1n(CCCN2CCN(c3cccc(Cl)c3)CC2)nc2ccccn12 [TRAZODONE HYDROCHLORIDE] | > 133 | – | > 133 | > 133
38 | CCOC(=O)[C@H](CCc1ccccc1)N[C@@H](C)C(=O)N1[C@H](C(=O)O)C[C@H]2CCCC[C@@H]21 [TRANDOLAPRIL] | > 133 | – | > 133 | > 133
39 | CCCCNc1cc(C(=O)O)cc(S(N)(=O)=O)c1Oc1ccccc1 [BUMETANIDE] | > 133 | – | > 133 | > 133
40 | Nc1c(CC(=O)O)cccc1C(=O)c1ccc(Br)cc1 [BROMFENAC] | > 133 | – | > 133 | > 133
41 | BIVALIRUDIN | > 133 | > 133 | – | > 133
42 | CCOC(=O)C1=C(C)NC(C)=C(C(=O)OC)C1c1cccc([N+](=O)[O-])c1 (stereo not drawn) [NITRENDIPINE] | 22.5 | – | > 133 | > 133
43 | CC(=O)Nc1ccc(S(=O)(=O)Nc2ccc([N+](=O)[O-])cc2)cc1 | > 133 | – | > 133 | > 133
44 | CN1C(=O)CN=C(c2ccccc2)c2cc(Cl)ccc21 [DIAZEPAM] | > 133 | – | > 133 | > 133

— ChEMBL document CHEMBL4028801, “A multifactorial approach to hepatobiliary transporter assessment enables improved therapeutic compound development” (Toxicol Sci, 2013)
